Values joined by “and” are separate entries in the source; they are usually repeats but may differ in a detail not shown here. Equal entries are not always repeated.
Columns and labels:
[1] = system: Cne-H99; assay: Efficacy in cryptococcal pulmonary infection mouse model; format: in vivo, Cryptococcus neoformans; BALB/c mice
Procedure: Blood samples were collected at 0, 0.5, 1, 2, 4, 8, 12, 16, 24, and 36 h after oral gavage. […] Other PK parameters are in Table 4. The values represent means±SD. […] On day 0, mice were infected with H99 (10^7 cells/mice) intranasally or mock-infected with PBS. Mice were euthanized on day 5, and lungs were dissected out, homogenized in RPMI-1640-MOPS media, and plated onto Sabouraud dextrose agar plates containing antibiotics. Plates were incubated at 30° C. for 72 h, and colonies were counted. […] VC: Vehicle control, (90% corn oil, 10% DMSO). Dpi: Days post-infection. CFU: Colony-forming units.
Efficacy studies in the mouse: The in vivo studies were done in a mouse model with the approval of IACUC, Wadsworth Center, Albany, NY. Male and female BALB/c mice 4-5-week-old were purchased from Jackson laboratory and quarantined for a week before shifting to the experimental room. The mice were grouped randomly with a male: female ratio 1:1, ears were punched as identification code. The formulation of the compound was done by dissolving the CMN in absolute DMSO and diluted in corn oil. The formulations were done daily, just before the dosing. […] Following this, the mice were anesthetized and infected with Cne-H99 cells ([…] in 30 μl PBS/mouse) intranasally. […] Mice were weighed every day, and visual observations were made for activity, movement, coat condition, etc. Food and water were ad libitum. On day 5, the mice were anesthetized and euthanized. Lung tissues were dissected out, weighed, and homogenized in 1 ml RPMI-MOPS media using a glass homogenizer. After log dilution of the tissue suspension in RPMI-MOPS, 100 μl from each dilution was plated onto SD agar plates with antibiotics (20 μg/ml penicillin, 40 μg/ml streptomycin, […], 25 μg/ml chloramphenicol). The plates were incubated at 30° C. for 3 days before counting the colonies. The counts were normalized with the weight of the lung tissue taken during the necropsy. The fungal load in the groups was compared with Student's t-test, and p<0.05 was considered as significant.

[2] = Cytotoxicity (Cell Counting Kit-8); format: cell-based; settings: human, A549 cells
Procedure: (§1) FIGS. 4A, 4B, and 4C show in vitro and in vivo toxicity. […] A549 and RAW 264.7 cells were grown in 96 well plates till 70% confluent. RAW 264.7 cells were differentiated into macrophages using PMA. […] The cell viability was estimated by Cell Counting Kit-8 (GlpBio, CA, USA), and absorbance was read at 450 nm using microplate reader Synergy H1 (BioTek). CC50 was calculated by GraphPad prism. […] Abs: absorbance. […] Bodyweight and other parameters were monitored daily (Table 3).
Approximately 2×10^4 A549 cells in MEM media with 10% FBS were seeded per well of 96 well plates and incubated at 37° C. to reach 70% confluent. […] The plates were incubated for 48 h before the addition of 10 μl water-soluble […] (Cell counting kit-8, Glpbio Technology) to each well and incubated at 37° C. for 3 h.

[3] = system: Cne cells; assay: Checkerboard assay with known antifungals; format: cell-based, Cryptococcus neoformans
Procedure: After adding Cne cells, the plates were incubated for 48 h. Well contents were mixed by pipette, and absorbance was read at 630 nm. […] Based on the FIC, the combinatorial effects are decided as in Table 2.

[4] = 7-day toxicity study in mice; format: in vivo, BALB/c mice; set-up: key to Movement score (first line, r17) / Movement score (second line, r19): 0 = Normal; 1 = slight incoordination/decreased righting response; 2 = tiptoe walking or altered gait involving 1 limb; 3 = staggering or paralysis or tremors of 2 or more limbs; key to Coat condition score: 0 = normal/groomed; 1 = rough; 2 = ruffled/unkempt; key to Posture score: 0 = normal; 1 = slightly hunched; 2 = moderately hunched; 3 = severally hunched; settings: for Coat condition score / Death / Movement score (first line, r17) / Movement score (second line, r19) / Posture score / Seizure: individual mice
Procedure: as §1
The mice were observed twice daily for general health, movement, activity, and coat condition and scored. Food and water were ad libitum. On day 7, the mice were euthanized, and necropsy was done to see any changes in the organs as compared to the normal mice by visual observation.

[5] = system: Cne-WT; assay: Fungistatic/fungicidal assay (MFC); format: cell-based, Cryptococcus neoformans
Procedure: The assay was performed by microdilution method as explained in materials and method. […] Cells in the wells were mixed by pipetting, and 30 μl of the culture taken from each well was plated onto SD agar plates. […] The MFC is the minimum drug concentration where there are no colonies. If the ratio of MFC/MIC≤4 is considered fungicidal.
Freshly grown Cne-WT colony on SD agar plate was resuspended in sterile water to give an OD600 of 0.1. This fungal suspension was further diluted at 1:500 in RPMI-MOPS media. A volume of 100 μl of the final cell suspension was added to each well in the assay plates. Additionally, 100 μl of final cell suspension was plated onto the SD agar plate to examine the actual cell count; and colonies were counted after 3 days. The assay plates were incubated at 30° C. for 48 h in a humidified incubator. The culture wells were mixed with micropipette tips, and 20 μl of the culture along with 70 μl RPMI-MOPS was plated onto the SD agar plates (100 mm) and incubated at 30° C. for 72 h before counting the colonies. […] The ratio of MFC/MIC≤4 was considered fungicidal and >4 as fungistatic.

[6] = CMN 5 mg/kg BW oral daily 7 days
[7] = CMN 10 mg/kg BW oral daily 7 days
[8] = CMN 20 mg/kg BW oral daily 7 days
[9] = CMN 40 mg/kg BW oral daily 7 days

With `CNc1ccc2oc(C[C@H]3O[C@@]4(CC[C@H]3C)O[C@H]([C@H](C)C(=O)c3ccc[nH]3)[C@H](C)C[C@H]4C)nc2c1C(=O)O` [CMN, calcimycin] the “reduction in fungal burden vs vehicle control” value ([1]; CMN 20 mg/Kg BW orally once daily for 5 days, day 5) was 3 fold, the “fungal burden in the lungs” value ([1]; CMN 20 mg/Kg BW orally once daily for 5 days, day 5, vehicle 1.8×10^8) was 6.3×10^7 CFU/g lung tissue and the “reduction in lung-fungal load” value ([1]; CMN 20 mg/kg body weight) was 60%. The CC50 at 48 h [2] was 16.3 µM and 8.6 µg/mL, the MIC ([3]; Cryptococcus neoformans, 48 h, read-out: MIC Alone) was 1.31 µg/mL and the “MIC Comb” value ([3]; combination CMN + 5-Fluorocytosine, well D2) was 0.65 µg/mL. For the same compound, the “MIC Comb” value ([3]; combination CMN + Amphotericin B, well E6) was 0.33 µg/mL, the “MIC Comb” value ([3]; combination CMN + Itraconazole, well E4) was 0.33 µg/mL and the “MIC Comb” value ([3]; combination CMN + Voriconazole, well D4) was 0.65 µg/mL. The other morbidity ([4]; 40 mg/ml daily oral gavage, 7 days) was “no other morbidity was observed”, the “loss of body weight” value ([4]; 40 mg/ml daily oral gavage, by day 7) was 8% and the activity of mice ([4]; 40 mg/ml, for 1-2 h post-dosing) was “slower”. For the same compound, the Coat condition score [4, 6] was 0, the Death [4, 6] was 0 and the “Movement score (first line, r17)” value [4, 6] was 0. For the same compound, the “Movement score (second line, r19)” value [4, 6] was 0, the Posture score [4, 6] was 0 and the Seizure [4, 6] was 0. The Coat condition score [4, 7] was 0, the Death [4, 7] was 0 and the “Movement score (first line, r17)” value [4, 7] was 0. For the same compound, the “Movement score (second line, r19)” value [4, 7] was 0, the Posture score [4, 7] was 0 and the Seizure [4, 7] was 0. For the same compound, the Coat condition score [4, 8] was 0, the Death [4, 8] was 0 and the “Movement score (first line, r17)” value [4, 8] was 0. The “Movement score (second line, r19)” value [4, 8] was 0, the Posture score [4, 8] was 0 and the Seizure [4, 8] was 0. For the same compound, the Coat condition score [4, 9] was 0, the Death [4, 9] was 0 and the “Movement score (first line, r17)” value [4, 9] was 1. The “Movement score (second line, r19)” value [4, 9] was 0, the Posture score [4, 9] was 0 and the Seizure [4, 9] was 0. The “change in activity, appearance of fur, weight loss” value ([4]; daily oral gavage at 5, 10, 20 mg/ml, 7 days) was “no significant change”, the “nature of inhibition (fungistatic/fungicidal)” value [5] was “fungistatic (>4 as fungistatic)” and the MFC ([5]; Cryptococcus neoformans, 48 h culture, plated, colonies day 3, read-out: MFC (minimum fungicidal concentration)) was over 26 µg/mL.
